Results: ChEMBL document CHEMBL3885861, “Open TG-GATES”

Species on record: Rattus norvegicus
Experiment: Open TG-GATES - Regimen: Daily Repeat
Type: toxicity, organism-based, Sprague-Dawley
Set-up: regimen Daily Repeat, gender Male, age 6 weeks
Conditions: in vivo, iv, 300 mg/kg, route intravenous injection, dose level Low; for APTT / Bas / Eos / Fbg / Hb / Ht / Lym / MCH / MCHC / MCV / Mono / Neu / PT / Plat / RBC / Ret / WBC: tissue Blood; for KIDNEY_L / KIDNEY_R / KIDNEY_TOTAL: tissue Kidney; for LIVER: tissue Liver; for ALP / ALT / AST / BUN / CRE / Ca / Cl / DBIL / GLC / IP / K / LDH / Na / PL / RALB / TBIL / TC / TG / TP / gamma-GTP: tissue Plasma

CC(=O)OCC1=C(C(=O)O)N2C(=O)[C@@H](NC(=O)Cc3cccs3)[C@H]2SC1 [CEPHALOTHIN]
TERMINAL_BW (72 h, time 3 day): 226.8 g | APTT (72 h, time 3 day): 22.4 s | Bas (72 h, time 3 day): 0% | Eos (72 h, time 3 day): 1.2% | Fbg (72 h, time 3 day): 291.2 mg/dL | Hb (72 h, time 3 day): 13.4 g/dL | Ht (72 h, time 3 day): 38.4% | Lym (72 h, time 3 day): 84.4% | MCH (72 h, time 3 day): 21.1 pg | MCHC (72 h, time 3 day): 35% | MCV (72 h, time 3 day): 60.2 fL | Mono (72 h, time 3 day): 2.8% | Neu (72 h, time 3 day): 10.6% | PT (72 h, time 3 day): 16.2 s | Plat (72 h, time 3 day): 131.5 x10_4/uL | RBC (72 h, time 3 day): 636.8 x10_4/ul | Ret (72 h, time 3 day): 6% | WBC (72 h, time 3 day): 103.7 x10_2/uL | KIDNEY_L (72 h, time 3 day): 1 g | KIDNEY_R (72 h, time 3 day): 1 g | KIDNEY_TOTAL (72 h, time 3 day): 1.9 g | LIVER (72 h, time 3 day): 10.3 g | ALP (72 h, time 3 day): 1513.6 IU/L | ALT (72 h, time 3 day): 37.8 IU/L | AST (72 h, time 3 day): 68.2 IU/L | BUN (72 h, time 3 day): 15.6 mg/dL | CRE (72 h, time 3 day): 0.1 mg/dL | Ca (72 h, time 3 day): 10.7 mg/dL | Cl (72 h, time 3 day): 106 meq/L | DBIL (72 h, time 3 day): 0 mg/dL | GLC (72 h, time 3 day): 175.4 mg/dL | IP (72 h, time 3 day): 6.1 mg/dL | K (72 h, time 3 day): 4.6 meq/L | LDH (72 h, time 3 day): 166 IU/L | Na (72 h, time 3 day): 140.4 meq/L | PL (72 h, time 3 day): 140 mg/dL | RALB (72 h, time 3 day): 3.1 g/dL | TBIL (72 h, time 3 day): 0.008 mg/dL | TC (72 h, time 3 day): 75.8 mg/dL | TG (72 h, time 3 day): 106.4 mg/dL | TP (72 h, time 3 day): 5.5 g/dL | gamma-GTP (72 h, time 3 day): 1.6 IU/L | TERMINAL_BW ([…], time 7 day): 260.2 g | TERMINAL_BW ([…], time 14 day): 304.3 g | TERMINAL_BW ([…], time 28 day): 378.7 g | APTT ([…], time 7 day): 22.5 s | Bas ([…], time 7 day): 0% | Eos ([…], time 7 day): 0.8% | Fbg ([…], time 7 day): 310 mg/dL | Hb ([…], time 7 day): 13.5 g/dL | Ht ([…], time 7 day): 38.9% | Lym ([…], time 7 day): 88.8% | MCH ([…], time 7 day): 20.8 pg | MCHC ([…], time 7 day): 34.6% | MCV ([…], time 7 day): 60.2 fL | Mono ([…], time 7 day): 1.6% | Neu ([…], time 7 day): 7.8% | PT ([…], time 7 day): 16.7 s | Plat ([…], time 7 day): 122.1 x10_4/uL | RBC ([…], time 7 day): 647 x10_4/ul | Ret ([…], time 7 day): 5.6% | WBC ([…], time 7 day): 91 x10_2/uL | APTT ([…], time 14 day): 24.3 s | Bas ([…], time 14 day): 0% | Eos ([…], time 14 day): 1% | Fbg ([…], time 14 day): 257.6 mg/dL | Hb ([…], time 14 day): 14.4 g/dL | Ht ([…], time 14 day): 40.4% | Lym ([…], time 14 day): 89.8% | MCH ([…], time 14 day): 20.7 pg | MCHC ([…], time 14 day): 35.6% | MCV ([…], time 14 day): 58.2 fL | Mono ([…], time 14 day): 1.8% | Neu ([…], time 14 day): 6.8% | PT ([…], time 14 day): 16.1 s | Plat ([…], time 14 day): 121.1 x10_4/uL | RBC ([…], time 14 day): 694 x10_4/ul | Ret ([…], time 14 day): 4.7% | WBC ([…], time 14 day): 103.2 x10_2/uL | APTT ([…], time 28 day): 25.4 s | Bas ([…], time 28 day): 0% | Eos ([…], time 28 day): 1.6% | Fbg ([…], time 28 day): 293.8 mg/dL | Hb ([…], time 28 day): 15.4 g/dL | Ht ([…], time 28 day): 42.1% | Lym ([…], time 28 day): 87.4% | MCH ([…], time 28 day): 19.1 pg | MCHC ([…], time 28 day): 36.6% | MCV ([…], time 28 day): 52.3 fL | Mono ([…], time 28 day): 2.4% | Neu ([…], time 28 day): 8.2% | PT ([…], time 28 day): 16.2 s | Plat ([…], time 28 day): 107.1 x10_4/uL | RBC ([…], time 28 day): 805.4 x10_4/ul | Ret ([…], time 28 day): 2.3% | WBC ([…], time 28 day): 92.3 x10_2/uL | KIDNEY_L ([…], time 7 day): 1.1 g | KIDNEY_R ([…], time 7 day): 1.1 g | KIDNEY_TOTAL ([…], time 7 day): 2.1 g | KIDNEY_L ([…], time 14 day): 1.2 g | KIDNEY_R ([…], time 14 day): 1.3 g | KIDNEY_TOTAL ([…], time 14 day): 2.5 g | KIDNEY_L ([…], time 28 day): 1.4 g | KIDNEY_R ([…], time 28 day): 1.4 g | KIDNEY_TOTAL ([…], time 28 day): 2.8 g | LIVER ([…], time 7 day): 11.8 g | LIVER ([…], time 14 day): 12.3 g | LIVER ([…], time 28 day): 14.2 g | ALP ([…], time 7 day): 1472.6 IU/L | ALT ([…], time 7 day): 34.4 IU/L | AST ([…], time 7 day): 68.2 IU/L | BUN ([…], time 7 day): 17.8 mg/dL | CRE ([…], time 7 day): 0.2 mg/dL | Ca ([…], time 7 day): 10.6 mg/dL | Cl ([…], time 7 day): 106.2 meq/L | DBIL ([…], time 7 day): 0 mg/dL | GLC ([…], time 7 day): 174.4 mg/dL | IP ([…], time 7 day): 7 mg/dL | K ([…], time 7 day): 4.4 meq/L | LDH ([…], time 7 day): 178.2 IU/L | Na ([…], time 7 day): 141.4 meq/L | PL ([…], time 7 day): 144.6 mg/dL | RALB ([…], time 7 day): 3 g/dL | TBIL ([…], time 7 day): 0.004 mg/dL | TC ([…], time 7 day): 71.2 mg/dL | TG ([…], time 7 day): 146.8 mg/dL | TP ([…], time 7 day): 5.5 g/dL | gamma-GTP ([…], time 7 day): 1.6 IU/L | ALP ([…], time 14 day): 1293.4 IU/L | ALT ([…], time 14 day): 29.6 IU/L | AST ([…], time 14 day): 57.8 IU/L | BUN ([…], time 14 day): 16.8 mg/dL | CRE ([…], time 14 day): 0.2 mg/dL | Ca ([…], time 14 day): 10.9 mg/dL | Cl ([…], time 14 day): 106.2 meq/L | DBIL ([…], time 14 day): 0 mg/dL | GLC ([…], time 14 day): 179.4 mg/dL | IP ([…], time 14 day): 6.9 mg/dL | K ([…], time 14 day): 4.2 meq/L | LDH ([…], time 14 day): 109.2 IU/L | Na ([…], time 14 day): 142.2 meq/L | PL ([…], time 14 day): 142.6 mg/dL | RALB ([…], time 14 day): 3.1 g/dL | TBIL ([…], time 14 day): 0.01 mg/dL | TC ([…], time 14 day): 75 mg/dL | TG ([…], time 14 day): 103.4 mg/dL | TP ([…], time 14 day): 5.7 g/dL | gamma-GTP ([…], time 14 day): 2 IU/L | ALP ([…], time 28 day): 1007.4 IU/L | ALT ([…], time 28 day): 30.4 IU/L | AST ([…], time 28 day): 58.8 IU/L | BUN ([…], time 28 day): 16.6 mg/dL | CRE ([…], time 28 day): 0.2 mg/dL | Ca ([…], time 28 day): 10.5 mg/dL | Cl ([…], time 28 day): 106.8 meq/L | DBIL ([…], time 28 day): 0.004 mg/dL | GLC ([…], time 28 day): 168.4 mg/dL | IP ([…], time 28 day): 5.6 mg/dL | K ([…], time 28 day): 4.1 meq/L | LDH ([…], time 28 day): 158 IU/L | Na ([…], time 28 day): 143.2 meq/L | PL ([…], time 28 day): 134.2 mg/dL | RALB ([…], time 28 day): 3.1 g/dL | TBIL ([…], time 28 day): 0.006 mg/dL | TC ([…], time 28 day): 65.6 mg/dL | TG ([…], time 28 day): 141.2 mg/dL | TP ([…], time 28 day): 5.9 g/dL | gamma-GTP ([…], time 28 day): 1 IU/L
